The series is described as follows: Rilpivirine dissolution rate (laboratory data, FIG. 9). Type of series: physicochemical. From the text: Formulation 3 and Formulation 4 differ in the weight of extragranular excipients and in the amount of croscarmellose sodium present. […] It may be postulated that the higher amounts of diluents in the rilpivirine layer of Formulation 3 that was bioequivalent to the rilpivirine single agent reference tablet could have served to lessen the extent of contact and interactions between rilpivirine and emtricitabine and/or tenofovir DF and achieve bioequivalence.
In addition, the higher amount of croscarmellose sodium, a superdisintegrant, leads to faster layer disintegration and separation of the rilpivirine layer from the emtricitabine/tenofovir DF layer minimizing any potential interactions between rilpivirine with emtricitabine and/or tenofovir DF. […] This is possibly due to the basifying nature of this excipient.

SMILES strings stand for the structures.

`Cc1cc(/C=C/C#N)cc(C)c1Nc1ccnc(Nc2ccc(C#N)cc2)n1.Cl` [rilpivirine, Rilpivirine HCl]: the rilpivirine dissolution rate entry (higher concentrations of croscarmellose sodium in the rilpivirine layer, FIG. 9) is “decreased”. In addition, the “intrinsic dissolution rate of rilpivirine” value (in the presence of emtricitabine and/or tenofovir DF) is recorded as “increased”.

(Values after US10857102B2, “Therapeutic compositions comprising rilpivirine HCL and tenofovir disoproxil fumarate” (priority 2010, dated 2020).)
